# According to patent publication US10959966B2, “Compositions and methods for modulating HEXM1 expression” (CASE WESTERN RESERVE UNIVERSITY, priority 2014, dated 2021):
# Legend:
# Format in all cases: cell-based
# [1] = system: triple negative MDA-MB-231 breast cancer cells; assay: Nile red staining of lipid droplets (differentiation marker), MDA-MB-231 cells; conditions: 72 hours
# Procedure: FIGS. 8(A-B) illustrate images showing (A) MCF7 cells transfected with control or HEXIM1 siRNA or (B) MDA-MB-231 transfected with control or HEXIM1 expression vector treated with vehicle (DMSO), HMBA, or 4a1 for 72 hours. Lower panels show Western blot analyses of HEXIM1 expression in MDA-MB-231 cells transfected with control or expression vector for Flag-tagged HEXIM1.
# Cells were stained with Nile red for lipid droplets (marker of cell differentiation). Briefly, the stock solution of Nile red 1 mg/ml in acetone was diluted in PBS (1:1000). The fixed cells (4% paraformaldehyde) were incubated with diluted Nile red for 5 minutes at room temperature, rinsed with PBS and observed for the presence of lipid droplets by confocal microscopy. Images were digitally captured using a Leica microscope (Leica Microsystems Inc, IL, USA).
# [2] = system: tamoxifen resistant breast cancer line (MCF7/TOTR); assay: MTT proliferation assay, sensitivity to trans-hydroxytamoxifen; conditions: 7 days, 5 mM HMBA or 50 μM 4a1
# Procedure: (§1) FIGS. 9(A-B) illustrate a Western blot and plots showing HEXIM1 expression in MCF7 and MCF7(TOTR) cells in the presence of vehicle (DMSO), 5 mM HMBA or 50 μM 4a1.
# (§2) MCF7, MDA-MB-231, and LNCaP cells were obtained from the American Tissue Culture Collection, and were maintained as previously described. Construction of expression vectors for control miRNA or HEXIM1 miRNAs were described previously. MCF7 or LNCaP cells were transfected with expression vectors containing either the HEXIM1 miRNA insert or a control miRNA insert as previously described. Following blasticidin selection, cells expressing the highest level of GFP were flow-sorted and expanded. […]
# MCF7 cells were plated onto 96 well plates and treated with 17β-estradiol±trans-hydroxytamoxifen in the presence of DMSO (vehicle), HMBA or 4a1 for 7 days. Cell proliferation was assessed using the MTT based Cell Growth Determination Kit from Sigma-Aldrich according to the manufacturer's protocol.
# (§3) We have reported that HEXIM1 is required for the ability of antiestrogens to inhibit the activity of the Estrogen Receptor, that loss of HEXIM1 results in agonistic activity of tamoxifen, and that recurrence after tamoxifen therapy can be correlated with loss of HEXIM1 expression in human breast tissue samples. Thus we determined if HMBA and 4a1 can enhance sensitivity to tamoxifen of a tamoxifen resistant breast cancer line (MCF7/TOTR). […]
# [3] = system: HEXIM1 expression in breast cancer MDA-MB-231 cells; assay: HEXIM1 expression in MDA-MB-231 cells
# Procedure: FIGS. 5(A-C) illustrate (A) the structure of HMBA analog, 4a1, (B) a graph showing HEXIM1 protein expression of breast cancer MCF7 cells treated with vehicle, HMBA, or 4a1 for 18 h, and (C) Western blot analyses of HEXIM1 targets relative to the loading control (GAPDH) of the treated cells.
# MCF7, MDA-MB-231, and LNCaP cells were obtained from the American Tissue Culture Collection, and were maintained as previously described. Construction of expression vectors for control miRNA or HEXIM1 miRNAs were described previously. MCF7 or LNCaP cells were transfected with expression vectors containing either the HEXIM1 miRNA insert or a control miRNA insert as previously described. Following blasticidin selection, cells expressing the highest level of GFP were flow-sorted and expanded. MDA-MB-231 cells were transfected with control or expression vector for Flag-tagged HEXIM1 as previously described. The tamoxifen resistant cells line (TOTR) was generated by serial passage of parental MCF7 cells in growth media supplemented with 1 uM trans-hydroxytamoxifen.
# Cell lysates were analyzed by western blot as previously described. Anti-HEXIM1 was generated in the Montano laboratory. Primary antibodies against p21 (C-19; cat# sc-397), cyclin D1 (HD11; cat# sc-246) and myc (9E10; cat# sc-40) were obtained from Santa Cruz Biotechnology. Anti-GAPDH was obtained from Millipore. […]
# [4] = system: HEXIM1 expression in MCF7/TOTR cells; assay: HEXIM1 expression in tamoxifen resistant MCF7/TOTR cells; conditions: 5 mM HMBA or 50 μM 4a1
# Procedure: as §1
# as §2, with “expanded. MDA-MB-231 cells were transfected with control or expression vector for Flag-tagged HEXIM1 as previously described.” for “expanded.”
# Cell lysates were analyzed by western blot as previously described. […]
# as §3
# [5] = system: p21 expression in breast cancer MCF7 cells; assay: p21 expression by western blot, MCF7 cells; conditions: 5 mM HMBA or 50 μM 4a1, 18 hours
# Procedure: FIGS. 7(A-B) illustrate Western blots showing (A) MCF7 (control siRNA or HEXIM1 siRNA) and (B) LNCaP (control shRNA or HEXIM1 shRNA) cells treated with vehicle (DMSO), 5 mM HMBA, or 50 μM 4a1 for 18 hours.
# (§4) Cell lysates were analyzed by western blot as previously described. Anti-HEXIM1 was generated in the Montano laboratory. Primary antibodies against p21 (C-19; cat# sc-397), cyclin D1 (HD11; cat# sc-246) and myc (9E10; cat# sc-40) were obtained from Santa Cruz Biotechnology. Anti-GAPDH was obtained from Millipore. Anti-HIF-1α was obtained from Oxy-cell, Bioresearch).
# HMBA was investigated in a Phase II clinical trial due to its potent anti-cancer and cell differentiation activities. Moreover, the roles of HMBA, and potentially 4a1, as differentiating factors are advantageous for their therapeutic use when compared to cytotoxic agents. […] We also examined the ability of 4a1 to induce differentiation and the relative role of HEXIM1.
# [6] = system: HEXIM1 targets in MCF7 cells; assay: Western blot of HEXIM1 targets in MCF7 cells; conditions: 5 mM HMBA or 50 uM 4a1, 18 h, relative to GAPDH
# Procedure: FIG. 10 illustrates a Western blot of MCF7 cells treated with vehicle, 5 mM HMBA, or 50 uM 4a1 for 18 h, and processes for analyses of HEXIM1 targets relative to GAPDH.
# as §4
# To assess the clinical potential of HMBA and 4a1 we need to determine to what extent the targets of HMBA and 4a1 overlap with that of HEXIM1. We focused on direct targets of HEXIM1 that we have identified.
smiles,measurement,setting,value
COc1ccc(CC(=O)NCCCCCCNC(C)=O)cc1 [Compound 4a1],"Cell differentiation (lipid droplets, Nile red)",[1],induced differentiation
same,Sensitivity of TOTR cells to trans-hydroxytamoxifen,[2],enhanced the sensitivity
same,Potency of HEXIM1 induction compared to HMBA,[3],increased potency
same,HEXIM1 expression,[4],induced HEXIM1 expression
same,p21 expression,[5],induced p21 expression
same,Expression of proteins directly regulated by HEXIM1,[6],regulated expression of proteins
